Reference: ChEMBL document CHEMBL1649507, “CMY-29 and CMY-30, two novel plasmid-mediated AmpC beta-lactamases” (2009)
In brackets after ≈: the same amount, converted by molar mass.

Key:
Format in all cases: functional
[1] = system: Escherichia coli; test: Antibacterial activity against Escherichia coli isolate ARL05-705 harboring beta-lactamase CMY 7 by broth microdilution method
[2] = system: Escherichia coli; test: Antibacterial activity against Escherichia coli isolate ARL05-909 harboring beta-lactamase CMY 29 by broth microdilution method
[3] = system: Escherichia coli; test: Antibacterial activity against Escherichia coli isolate ARL06-39 harboring beta-lactamase CMY 30 by broth microdilution method
[4] = system: Escherichia coli; test: Antibacterial activity against Escherichia coli isolate ARL04-413 harboring beta-lactamase CMY 2 by broth microdilution method

## CO[C@@]1(NC(=O)Cc2cccs2)C(=O)N2C(C(=O)O)=C(COC(N)=O)CS[C@@H]21 [CEFOXITIN]
[1]
  MIC: 64 µg/mL (≈ 150 µM)
[2]
  MIC: ≥ 256 µg/mL
[3]
  MIC: 128 µg/mL (≈ 299 µM)
[4]
  MIC: ≥ 256 µg/mL

## C[C@@H](O)[C@H]1C(=O)N2C(C(=O)O)=C(SCCNC=N)C[C@H]12 [IMIPENEM ANHYDROUS]
[1]
  MIC: 0.5 µg/mL (≈ 1.67 µM)
[2]
  MIC: 0.5 µg/mL (≈ 1.67 µM)
[3]
  MIC: 0.5 µg/mL (≈ 1.67 µM)
[4]
  MIC: 0.25 µg/mL (≈ 0.835 µM)

## CO/N=C(\C(=O)N[C@@H]1C(=O)N2C(C(=O)O)=C(CSc3nc(=O)c(O)nn3C)CS[C@H]12)c1csc(N)n1 [CEFTRIAXONE]
[1]
  MIC: 32 µg/mL (≈ 57.7 µM)
[2]
  MIC: 128 µg/mL (≈ 231 µM)
[3]
  MIC: 32 µg/mL (≈ 57.7 µM)
[4]
  MIC: 32 µg/mL (≈ 57.7 µM)

## CC(C)(O/N=C(\C(=O)N[C@@H]1C(=O)N2C(C(=O)[O-])=C(C[n+]3ccccc3)CS[C@H]12)c1csc(N)n1)C(=O)O [CEFTAZIDIME]
[1]
  MIC: 64 µg/mL (≈ 117 µM)
[2]
  MIC: ≥ 128 µg/mL
[3]
  MIC: 32 µg/mL (≈ 58.5 µM)
[4]
  MIC: 64 µg/mL (≈ 117 µM)

## CO/N=C(\C(=O)N[C@@H]1C(=O)N2C(C(=O)[O-])=C(C[N+]3(C)CCCC3)CS[C@H]12)c1csc(N)n1 [CEFEPIME]
[1]
  MIC: 0.25 µg/mL (≈ 0.52 µM)
[2]
  MIC: 1 µg/mL (≈ 2.08 µM)
[3]
  MIC: 0.5 µg/mL (≈ 1.04 µM)
[4]
  MIC: 0.25 µg/mL (≈ 0.52 µM)

## C[C@@H](O)[C@H]1C(=O)N2C(C(=O)O)=C(S[C@@H]3CN[C@H](C(=O)N(C)C)C3)[C@H](C)[C@H]12 [MEROPENEM]
[1]
  MIC: ≤ 0.12 µg/mL
[2]
  MIC: ≤ 0.12 µg/mL
[3]
  MIC: ≤ 0.12 µg/mL
[4]
  MIC: ≤ 0.12 µg/mL
